Experimental data: PubChem BioAssay (NCI)
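Interpolation was linear, between the two tested concentrations surrounding the appropriate level; five concentrations were tested over 48 hours in 96-well plates. TGI is the concentration that stops growth completely.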

Legend:
Assay in all cases: NCI tumour cell line growth inhibition, 48 h
[1] = tested on: SK-MEL-28 melanoma
[2] = tested on: SK-MEL-2 melanoma
[3] = tested on: SN12C renal
[4] = tested on: SK-MEL-5 melanoma
[5] = tested on: MCF7 breast
[6] = tested on: UACC-62 melanoma
[7] = tested on: A498 renal
[8] = tested on: COLO 205 colon
[9] = tested on: SNB-19 CNS
[10] = tested on: MOLT-4 leukemia
[11] = tested on: SW-620 colon
[12] = tested on: UACC-257 melanoma
[13] = tested on: HL-60(TB) leukemia
[14] = tested on: HCT-116 colon
[15] = tested on: BT-549 breast
[16] = tested on: 786-0 renal
[17] = tested on: NCI-H23 lung
[18] = tested on: UO-31 renal
[19] = tested on: SF-268 CNS
[20] = tested on: NCI-H522 lung
[21] = tested on: RPMI-8226 leukemia
[22] = tested on: CAKI-1 renal
[23] = tested on: IGROV1 ovarian
[24] = tested on: SR leukemia
[25] = tested on: CCRF-CEM leukemia
[26] = tested on: KM12 colon
[27] = tested on: HS 578T breast
[28] = tested on: MDA-MB-435
[29] = tested on: TK-10 renal
[30] = tested on: HCT-15 colon
[31] = tested on: NCI-H226 lung
[32] = tested on: HT29 colon
[33] = tested on: A549 NSCLC
[34] = tested on: U251 CNS
[35] = tested on: MDA-MB-231 breast
[36] = tested on: NCI/ADR-RES ovarian
[37] = tested on: T-47D breast
[38] = tested on: RXF 393 renal
[39] = tested on: LOX IMVI melanoma
[40] = tested on: K-562 leukemia
[41] = tested on: EKVX NSCLC
[42] = tested on: SF-295 CNS
[43] = tested on: MALME-3M melanoma
[44] = tested on: SF-539 CNS
[45] = tested on: OVCAR-4 ovarian
[46] = tested on: HOP-62 NSCLC
[47] = tested on: M14 melanoma
[48] = tested on: MDA-N
[49] = tested on: OVCAR-5 ovarian
[50] = tested on: PC-3 prostate
[51] = tested on: HCC-2998 colon
[52] = tested on: OVCAR-8 ovarian
[53] = tested on: ACHN renal
[54] = tested on: SK-OV-3 ovarian
[55] = tested on: SNB-75 CNS
[56] = tested on: NCI-H460 lung
[57] = tested on: OVCAR-3 ovarian
[58] = tested on: HOP-92 NSCLC
[59] = tested on: DU-145 prostate

**Q.** How did the TGI [1] turn out when `CN(C)CCn1nc2c3c(c(C(=O)NCCCN(C)CCCNC(=O)c4ccc5c6c(nn5CCN(C)C)-c5ccccc5Nc46)ccc31)Nc1ccccc1-2` was run?
**A.** 1.15 µM

**Q.** And the TGI [2]?
**A.** 0.243 µM

**Q.** And the TGI [3]?
**A.** 0.708 µM

**Q.** And the TGI [4]?
**A.** 1.46 µM

**Q.** What about the TGI [5] of the same compound?
**A.** 0.582 µM

**Q.** And the TGI [6]?
**A.** 0.424 µM

**Q.** And the TGI [7]?
**A.** 0.623 µM

**Q.** And the TGI [8]?
**A.** 0.227 µM

**Q.** What about the TGI [9] of the same compound?
**A.** 0.748 µM

**Q.** And the TGI [10]?
**A.** 1.58 µM

**Q.** What about the TGI [11] of the same compound?
**A.** 3.49 µM

**Q.** What about the TGI [12] of the same compound?
**A.** 1.09 µM

**Q.** What about the TGI [13] of the same compound?
**A.** 0.944 µM

**Q.** And the TGI [14]?
**A.** 0.525 µM

**Q.** What about the TGI [15] of the same compound?
**A.** 1.65 µM

**Q.** What about the TGI [16] of the same compound?
**A.** 1.28 µM

**Q.** What about the TGI [17] of the same compound?
**A.** 0.617 µM

**Q.** And the TGI [18]?
**A.** 3.22 µM

**Q.** What about the TGI [19] of the same compound?
**A.** 0.549 µM

**Q.** And the TGI [20]?
**A.** 0.117 µM

**Q.** And the TGI [21]?
**A.** 1.37 µM

**Q.** What about the TGI [22] of the same compound?
**A.** 3.3 µM

**Q.** What about the TGI [23] of the same compound?
**A.** 15.6 µM

**Q.** And the TGI [24]?
**A.** 1.2 µM

**Q.** What about the TGI [25] of the same compound?
**A.** 2.63 µM

**Q.** And the TGI [26]?
**A.** 1.33 µM

**Q.** What about the TGI [27] of the same compound?
**A.** 1.86 µM

**Q.** And the TGI [28]?
**A.** 0.415 µM

**Q.** What about the TGI [29] of the same compound?
**A.** 3.32 µM

**Q.** And the TGI [30]?
**A.** 16.6 µM

**Q.** And the TGI [31]?
**A.** 0.217 µM

**Q.** And the TGI [32]?
**A.** 0.561 µM

**Q.** What about the TGI [33] of the same compound?
**A.** 0.332 µM

**Q.** What about the TGI [34] of the same compound?
**A.** 0.452 µM

**Q.** And the TGI [35]?
**A.** 0.518 µM

**Q.** What about the TGI [36] of the same compound?
**A.** > 71.2 µM

**Q.** And the TGI [37]?
**A.** 10.5 µM

**Q.** And the TGI [38]?
**A.** 1.45 µM

**Q.** And the TGI [39]?
**A.** 1.28 µM

**Q.** What about the TGI [40] of the same compound?
**A.** 1.89 µM

**Q.** And the TGI [41]?
**A.** 0.505 µM

**Q.** What about the TGI [42] of the same compound?
**A.** 2.08 µM

**Q.** What about the TGI [43] of the same compound?
**A.** 0.28 µM

**Q.** And the TGI [44]?
**A.** 2.19 µM

**Q.** What about the TGI [45] of the same compound?
**A.** 0.658 µM

**Q.** And the TGI [46]?
**A.** 0.574 µM

**Q.** What about the TGI [47] of the same compound?
**A.** 1.58 µM

**Q.** What about the TGI [48] of the same compound?
**A.** 0.318 µM

**Q.** And the TGI [49]?
**A.** 0.751 µM

**Q.** And the TGI [50]?
**A.** 0.834 µM

**Q.** And the TGI [51]?
**A.** 0.245 µM

**Q.** And the TGI [52]?
**A.** 2.97 µM

**Q.** What about the TGI [53] of the same compound?
**A.** 6.26 µM

**Q.** What about the TGI [54] of the same compound?
**A.** 0.407 µM

**Q.** What about the TGI [55] of the same compound?
**A.** 0.272 µM

**Q.** And the TGI [56]?
**A.** 0.432 µM

**Q.** What does the source list for `c1ccc(CNCCN2CCNCC2)nc1`?
**A.** TGI [1]: > 100 µM; TGI [2]: > 100 µM; TGI [3]: > 100 µM; TGI [57]: > 100 µM; TGI [4]: > 100 µM; TGI [5]: > 100 µM; TGI [6]: > 100 µM; TGI [7]: > 100 µM; TGI [8]: > 100 µM; TGI [9]: > 100 µM; TGI [10]: > 100 µM; TGI [11]: > 100 µM; TGI [12]: > 100 µM; TGI [14]: > 100 µM; TGI [58]: > 100 µM; TGI [15]: > 100 µM; TGI [16]: > 100 µM; TGI [17]: > 100 µM; TGI [18]: > 100 µM; TGI [19]: > 100 µM; TGI [20]: > 100 µM; TGI [21]: > 100 µM; TGI [22]: > 100 µM; TGI [23]: > 100 µM; TGI [24]: > 100 µM; TGI [26]: > 100 µM; TGI [27]: > 100 µM; TGI [28]: > 100 µM; TGI [29]: > 100 µM; TGI [30]: > 100 µM; TGI [31]: > 100 µM; TGI [32]: > 100 µM; TGI [33]: > 100 µM; TGI [34]: > 100 µM; TGI [35]: > 100 µM; TGI [36]: > 100 µM; TGI [37]: > 100 µM; TGI [38]: > 100 µM; TGI [39]: > 100 µM; TGI [40]: > 100 µM; TGI [41]: > 100 µM; TGI [42]: > 100 µM; TGI [43]: > 100 µM; TGI [44]: > 100 µM; TGI [45]: > 100 µM; TGI [46]: > 100 µM; TGI [47]: > 100 µM; TGI [48]: > 100 µM; TGI [49]: > 100 µM; TGI [50]: > 100 µM; TGI [52]: > 100 µM; TGI [53]: > 100 µM; TGI [54]: > 100 µM; TGI [55]: > 100 µM; TGI [56]: > 100 µM

**Q.** Which TGI [1] does the source give for `C=CCCC1CCCNC1=S` (stereo unspecified) here?
**A.** > 100 µM

**Q.** What about the TGI [2] of the same compound?
**A.** > 100 µM

**Q.** And the TGI [3]?
**A.** > 100 µM

**Q.** What about the TGI [4] of the same compound?
**A.** > 100 µM

**Q.** And the TGI [5]?
**A.** > 100 µM

**Q.** And the TGI [6]?
**A.** > 100 µM

**Q.** And the TGI [7]?
**A.** > 100 µM

**Q.** And the TGI [8]?
**A.** > 100 µM

**Q.** What about the TGI [9] of the same compound?
**A.** > 100 µM

**Q.** What about the TGI [11] of the same compound?
**A.** > 100 µM

**Q.** And the TGI [12]?
**A.** > 100 µM

**Q.** What about the TGI [14] of the same compound?
**A.** > 100 µM

**Q.** What about the TGI [58] of the same compound?
**A.** > 100 µM

**Q.** And the TGI [15]?
**A.** > 100 µM

**Q.** What about the TGI [16] of the same compound?
**A.** > 100 µM

**Q.** And the TGI [17]?
**A.** > 100 µM

**Q.** And the TGI [18]?
**A.** > 100 µM

**Q.** What about the TGI [19] of the same compound?
**A.** > 100 µM

**Q.** And the TGI [20]?
**A.** > 100 µM

**Q.** And the TGI [21]?
**A.** > 100 µM

**Q.** And the TGI [22]?
**A.** > 100 µM

**Q.** And the TGI [23]?
**A.** > 100 µM

**Q.** What about the TGI [27] of the same compound?
**A.** > 100 µM

**Q.** And the TGI [28]?
**A.** > 100 µM

**Q.** What about the TGI [29] of the same compound?
**A.** > 100 µM

**Q.** And the TGI [30]?
**A.** > 100 µM

**Q.** And the TGI [31]?
**A.** > 100 µM

**Q.** And the TGI [32]?
**A.** > 100 µM

**Q.** What about the TGI [33] of the same compound?
**A.** > 100 µM

**Q.** What about the TGI [34] of the same compound?
**A.** > 100 µM

**Q.** And the TGI [35]?
**A.** > 100 µM

**Q.** And the TGI [37]?
**A.** > 100 µM

**Q.** What about the TGI [38] of the same compound?
**A.** > 100 µM

**Q.** What about the TGI [40] of the same compound?
**A.** > 100 µM

**Q.** What about the TGI [41] of the same compound?
**A.** > 100 µM

**Q.** What about the TGI [42] of the same compound?
**A.** > 100 µM

**Q.** What about the TGI [44] of the same compound?
**A.** > 100 µM

**Q.** What about the TGI [45] of the same compound?
**A.** > 100 µM

**Q.** What about the TGI [46] of the same compound?
**A.** > 100 µM

**Q.** What about the TGI [47] of the same compound?
**A.** > 100 µM

**Q.** What about the TGI [48] of the same compound?
**A.** > 100 µM

**Q.** What about the TGI [49] of the same compound?
**A.** > 100 µM

**Q.** What about the TGI [59] of the same compound?
**A.** > 100 µM

**Q.** What about the TGI [50] of the same compound?
**A.** > 100 µM

**Q.** And the TGI [51]?
**A.** > 100 µM

**Q.** And the TGI [52]?
**A.** > 100 µM

**Q.** What about the TGI [53] of the same compound?
**A.** > 100 µM

**Q.** And the TGI [54]?
**A.** > 100 µM

**Q.** What about the TGI [55] of the same compound?
**A.** > 100 µM

**Q.** What about the TGI [56] of the same compound?
**A.** > 100 µM
